In US11001563B2, “SSAO inhibitor” (SHANDONG DANHONG PHARMACEUTICAL CO., LTD., priority 2017, dated 2021):

molecular target: T1, VAP-1/SSAO (Homo sapiens (Human), UniProt Q16853); assay: Human VAP-1 enzyme activity assay (Amplex Red Monoamine Oxidase kit); format: biochemical; conditions: 10 nM VAP-1 enzyme, 30 min preincubation, benzylamine substrate; read-out: Human Recombinant VAP-1/SSAO Enzyme Inhibitory Activity IC50
Protocol: Human VAP-1 enzyme activity assay:
The inhibition of the sample on VAP-enzyme activity was measured by using an Amplex® Red Monoamine Oxidase kit (Invitrogen #A12214). 100 nL of the gradiently-diluted to-be-tested compound (solvent DMSO) was added to a 384-well plate. 25 μL of 10 nM VAP-1 enzyme solution was added and incubated for 30 minutes at room temperature. A substrate mixture of VAP-1 enzyme (200 μM Amplex Red, 1 U/mL HRP, 1 mM Benzylamine) was added and incubated for 60 minutes at room temperature. After the incubation, the fluorescent signal was read with a microplate reader Envision (excitation light wavelength 530-560 nm, emission light wavelength 590 nm). The fluorescence signal value after the background signal was removed was analyzed by Prism software, and the IC50 of the sample against the VAP-1 enzyme was calculated.

T1 sequence (Q16853 whole entry): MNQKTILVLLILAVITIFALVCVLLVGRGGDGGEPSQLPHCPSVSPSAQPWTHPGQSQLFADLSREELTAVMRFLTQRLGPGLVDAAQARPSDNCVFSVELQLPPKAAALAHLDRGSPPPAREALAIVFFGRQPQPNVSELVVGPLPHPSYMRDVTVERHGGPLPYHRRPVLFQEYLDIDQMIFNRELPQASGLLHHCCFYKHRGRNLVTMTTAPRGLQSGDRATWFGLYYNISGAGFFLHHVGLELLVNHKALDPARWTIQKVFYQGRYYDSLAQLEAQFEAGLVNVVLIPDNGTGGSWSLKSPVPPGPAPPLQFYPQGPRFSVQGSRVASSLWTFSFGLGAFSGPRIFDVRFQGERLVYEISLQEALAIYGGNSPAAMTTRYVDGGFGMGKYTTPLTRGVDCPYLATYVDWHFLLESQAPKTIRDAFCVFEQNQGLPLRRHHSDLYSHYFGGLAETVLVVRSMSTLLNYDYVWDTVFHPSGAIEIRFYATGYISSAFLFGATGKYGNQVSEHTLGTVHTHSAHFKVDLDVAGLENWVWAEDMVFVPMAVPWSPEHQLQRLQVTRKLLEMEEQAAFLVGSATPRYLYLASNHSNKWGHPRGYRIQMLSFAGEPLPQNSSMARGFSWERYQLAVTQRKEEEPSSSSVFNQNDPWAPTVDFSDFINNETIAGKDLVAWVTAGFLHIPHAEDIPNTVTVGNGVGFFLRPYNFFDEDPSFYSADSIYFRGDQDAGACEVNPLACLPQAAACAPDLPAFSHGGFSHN

Row | IC50 [nM] | Structure (SMILES)
1 | 0.3 | Cn1nc(CC(F)(F)F)nc1-c1ccc(OC/C(=C/F)CN)cc1 [WX104]
2 | 0.8 | NC/C(=C\F)COc1ccc(-c2nc(C3CC3(F)F)n[nH]2)cc1 (centres unmarked) [WX096]
3 | 1.1 | CC1(C)CN=C(c2ccc(OC/C(=C/F)CN)cc2)N1 [WX106]
4 | 1.3 | NC/C(=C\F)COc1ccc(N2C(=O)C(=O)c3ccccc32)cc1 [WX052]
5 | 0.4 | Cc1nc(-c2ccc(OC/C(=C/F)CN)cc2)sc1N1CCOCC1 [WX102]
6 | 1.1 | CC(C)(C)c1nc(-c2ccc(OC/C(=C/F)CN)cc2)no1 [WX045]
7 | 1.1 | NC/C(=C\F)COc1ccc(-c2nc(C3CC3)n(CC(F)(F)F)n2)cc1 [WX113]
8 | 2 | CC(C)(C)c1noc(-c2ccc(OC/C(=C/F)CN)cc2)n1 [WX019]
9 | 0.2 | NC/C(=C\F)COc1ccc(-c2nnc(NC3CC3)o2)cc1 [WX079]
10 | 2.3 | CC(C)(C)c1n[nH]c(-c2ccc(OC/C(=C/F)CN)cc2)n1 [WX035]
11 | 0.3 | Cc1ncc(-c2ccc(OC/C(=C/F)CN)cc2)s1 [WX024]
12 | 0.7 | Cc1nc(-c2ccc(OC/C(=C/F)CN)cc2)no1 [WX028]
13 | 0.2 | NC/C(=C\F)COc1ccc(-c2nc(CC3CCCC3)n[nH]2)cc1 [WX103]
14 | 1 | CCn1nc(-c2ccc(OC/C(=C/F)CN)cc2)nc1C(F)F [WX128]
15 | 1.2 | CC(C)n1nc(-c2ccc(OC/C(=C/F)CN)cc2)nc1C1CC1 [WX091]
16 | 0.7 | NC/C(=C\F)COc1ccc(-c2nc(C(N)=O)n[nH]2)cc1 [WX072]
17 | 0.7 | Cn1nc(-c2ccc(OC/C(=C/F)CN)cc2)nc1C1CC1 [WX075]
18 | 1 | Cn1nc(-c2ccc(OC/C(=C/F)CN)cc2)nc1N1CCOCC1 [WX122]
19 | 1.4 | CC(C)n1nc(-c2ccc(OCC(=CF)CN)cc2)nc1C1(F)CC1 [WX130]
20 | 0.9 | NC/C(=C\F)COc1ccc(-c2nc(N3CCOCC3)n[nH]2)cc1 [WX073]
21 | 1.9 | Cn1nc(C(C)(C)C)nc1-c1ccc(OC/C(=C/F)CN)cc1 [WX089]
22 | 1 | CCn1nc(-c2ccc(OC/C(=C/F)CN)cc2)nc1N1CCOCC1 [WX125]
23 | 0.5 | Cc1coc(-c2ccc(OC/C(=C/F)CN)cc2)n1 [WX039]
24 | 0.4 | NC/C(=C\F)COc1ccc(-c2nc(CC(F)(F)F)n[nH]2)cc1 [WX101]
25 | 0.3 | Cn1ncc(-c2ccc(OC/C(=C/F)CN)cc2)n1 [WX026]
26 | 0.7 | Cn1nc(C2(F)CC2)nc1-c1ccc(OC/C(=C/F)CN)cc1 [WX117]

Row | IC50 [nM] | Structure (SMILES)
27 | 3.4 | NC/C(=C\F)COc1cc(F)c(-c2nc(N3CCOCC3)n[nH]2)c(F)c1 [WX099]
28 | 0.8 | Cn1nc(-c2ccc(OC/C(=C/F)CN)cc2)nc1C1(F)CC1 [WX127]
29 | 0.8 | NC/C(=C\F)COc1ccc(-c2nc(C3CCCC3)n[nH]2)cc1 [WX064]
30 | 1.4 | CCn1nc(-c2ccc(OC/C(=C/F)CN)cc2)nc1C1CC1 [WX092]
31 | 0.3 | NC/C(=C\F)COc1ccc(-c2nc(NC3CC3)no2)cc1 [WX082]
32 | 2.5 | Cc1nnc(-c2ccc(OC/C(=C/F)CN)cc2)o1 [WX004]
33 | 0.6 | Cc1cn[nH]c1-c1ccc(OC/C(=C/F)CN)cc1 [WX041]
34 | 0.8 | NC/C(=C\F)COc1ccc(-c2nc(C3CC3)n[nH]2)cc1 [WX034]
35 | 3.7 | Cc1n[nH]c(-c2ccc(OC/C(=C/F)CN)cc2)n1 [WX009]
36 | 0.6 | CC(C)(C)n1nnc(-c2ccc(OC/C(=C/F)CN)cc2)n1 [WX048]
37 | 1.7 | NC/C(=C\F)COc1ccc(-c2nc(C3CC3)n(CCO)n2)cc1 [WX112]
38 | 0.2 | NC/C(=C\F)COc1ccc(-c2nc(C3CCC3)n[nH]2)cc1 [WX085]
39 | 1.7 | NC/C(=C\F)COc1ccc(-c2nc(C3CC3)no2)c(Cl)c1 [WX056]
40 | 0.3 | NC/C(=C\F)COc1ccc(-c2noc3ccccc23)cc1 [WX033]
41 | 0.3 | NC/C(=C\F)COc1ccc(-c2nnn(C3CC3)n2)cc1 [WX049]
42 | 1.6 | CC(C)(C)C(=O)Nc1noc(-c2ccc(OC/C(=C/F)CN)cc2)n1 [WX077]
43 | 0.3 | NC/C(=C\F)COc1ccc(-c2ncccn2)cc1 [WX021]
44 | 0.8 | NC/C(=C\F)COc1ccc(-c2nc(-c3ccccc3)no2)cc1 [WX017]
45 | 0.5 | NC/C(=C\F)COc1ccc(-c2nc(NC3CC3)n[nH]2)cc1 [WX081]
46 | 1.1 | Cn1nc(-c2ccc(OC/C(=C/F)CN)cc2)nc1C(C)(C)C [WX090]
47 | 0.5 | CCCc1n[nH]c(-c2ccc(OC/C(=C/F)CN)cc2)n1 [WX097]
48 | 2.9 | Cn1nc(-c2ccc(OC/C(=C/F)CN)cc2)nc1C1CCOCC1 [WX095]
49 | 1 | NC/C(=C\F)COc1ccc(-c2nc(N)no2)cc1 [WX074]
50 | 1 | NC/C(=C\F)COc1ccc(-c2nc(C3CC3)no2)cc1 [WX016]
51 | 0.3 | Cc1csc(-c2ccc(OC/C(=C/F)CN)cc2)n1 [WX022]
52 | 9.9 | NC/C(=C\F)COc1ccc(-c2nc(N3CCOCC3)cs2)cc1 [WX086]

Row | IC50 [nM] | Structure (SMILES)
53 | 0.8 | CCn1nnc(-c2ccc(OC/C(=C/F)CN)cc2)n1 [WX014]
54 | 2.8 | CC(C)n1nc(C(F)F)nc1-c1ccc(OC/C(=C/F)CN)cc1 [WX109]
55 | 0.4 | NC/C(=C\F)COc1ccc(-c2nc3ccccc3o2)cc1 [WX023]
56 | 0.4 | NC/C(=C\F)COc1ccc(-c2n[nH]c(C(CO)CCl)n2)cc1 (centres unmarked) [WX083]
57 | 0.7 | CCn1nc(C2(F)CC2)nc1-c1ccc(OC/C(=C/F)CN)cc1 [WX118]
58 | 2.2 | CC(C)n1nc(-c2ccc(OC/C(=C/F)CN)cc2)nc1N1CCOCC1 [WX123]
59 | 0.5 | NC/C(=C\F)COc1ccc(-c2noc(C3CC3)n2)cc1 [WX044]
60 | 0.4 | NC/C(=C\F)COc1ccc(-c2nc3ccc(Cl)cc3[nH]2)cc1 [WX054]
61 | 0.4 | Cc1nc(-c2ccc(OC/C(=C/F)CN)cc2)sc1C [WX111]
62 | 0.3 | NC/C(=C\F)COc1ccc(-c2nc(C3CCOCC3)n[nH]2)cc1 [WX093]
63 | 0.3 | NC/C(=C\F)COc1ccc(-c2nc(C3CC3)n[nH]2)c(F)c1 [WX094]
64 | 1.6 | CC(C)(C)NC(=O)c1noc(-c2ccc(OC/C(=C/F)CN)cc2)n1 [WX042]
65 | 0.3 | NC/C(=C\F)COc1ccc(-c2nc(C3(F)CC3)n[nH]2)cc1 [WX087]
66 | 0.9 | Cn1cnc(-c2ccc(OC/C(=C/F)CN)cc2)n1 [WX025]
67 | 2.1 | Cn1nc(C2CC2)nc1-c1ccc(OC/C(=C/F)CN)cc1 [WX076]
68 | 0.4 | NC/C(=C\F)COc1ccc(-c2nc(C(F)F)n[nH]2)cc1 [WX088]
69 | 1.1 | NC/C(=C\F)COc1ccc(-c2nccc(N3CCOCC3)n2)cc1 [WX070]
70 | 1.1 | NC/C(=C\F)COc1ccc(-c2nc(N3CCOCC3)n[nH]2)c(F)c1 [WX100]
71 | 3.8 | COc1ccc(Cn2nc(-c3ccc(OC/C(=C/F)CN)cc3)nc2NC2CC2)cc1 [WX080]
72 | 1.4 | CC(C)n1nc(-c2ccc(OC/C(=C/F)CN)cc2)nc1C(F)F [WX124]
73 | 0.5 | Cc1cnoc1-c1ccc(OC/C(=C/F)CN)cc1 [WX040]
74 | 0.5 | Cn1nc(-c2ccc(OC/C(=C/F)CN)cc2)nc1CC(F)(F)F [WX105]
75 | 4.6 | NC/C(=C\F)COc1ccc(-c2nc(C(F)(F)F)n[nH]2)cc1 [WX036]
76 | 1 | CCn1nc(-c2ccc(OC/C(=C/F)CN)cc2)nc1C1(F)CC1 [WX129]

Row | Structure (SMILES) | IC50 [nM]
77 | CS(=O)(=O)n1nc(C2CC2)nc1-c1ccc(OC/C(=C/F)CN)cc1 [WX062] | 1.2

molecular target: T1, VAP-1/SSAO; assay: VAP-1 cell activity assay (HUVEC or CHO cells transfected with VAP-1/pCDNA (3.1) plasmid, Amplex Red); format: cell-based; conditions: HUVEC or CHO cells transfected with VAP-1 plasmid; read-out: VAP-1/SSAO Cellular Inhibitory Activity IC50
Protocol: The inhibition of the sample on VAP-1 cell activity was measured by using an Amplex® Red Monoamine Oxidase kit (Invitrogen #A12214).
The cultured HUVEC or CHO cells were plated into a 6-well plate at a density of 0.8 M/well, placed in a 37° C., 5% CO2 incubator for incubation for 24 hours, and then the cells was transferred with a Lipo2000 reagent and a VAP-1/pCDNA (3.1) plasmid, and liquid was changed for the cells after 5 hours (Lipo2000 was toxic to the cells); after 24 hours, the cells were digested and plated into 384-well plates with a density of 25 μl, 10000 cells/well, and liquid was replaced with medium without FBS for the cells after 6-7 hours, and the cell plates were incubated overnight at 37° C. in a 5% CO2 incubator.
1) Dilution of the compound: serial dilution in 4× gradient was carried out with 100% DMSO, 10 points were diluted, the starting concentration of the to-be-tested compound was 0.5 mM (final concentration was 1 μM); 100 nl of compound solution was transferred to a 384-well cell assay plate with ECHO. Negative control wells: 100 nl of DMSO; background control wells: 100 nl DMSO+25 μL medium.
2) The reaction was carried out in the dark at room temperature for 30 min.
3) Preparation of Amplex Red reagent+HRP+benzylamine substrate working solution: Amplex Red reagent+HRP+benzylamine substrate working solution (200 μM Amplex Red reagent+1 U/mL HRP+1 mM benzylamine): 45 μl of 20 mM Amplex Red reagent mother solution, 22.5 μl of 200 U/ml horseradish peroxidase (HRP) mother solution and 45 ul of 100 mM benzylamine were tanken and added to 4.3875 ml of 1× reaction buffer.
4) After 30 min, 25 μl of the substrate working solution was added to a 384-well plate, and a final concentration was 100 μM Amplex Red reagent+0.5 U/mL HRP+0.5 mM benzylamine, respectively.
5) The reaction was carried out in the dark at room temperature for 60 minutes, and the fluorescence value was measured by Envision: the excitation wave was 535 nm, and the emission wave was 590 nm.
6) Inhibition rate calculation formula: % inhibition rate=(1−(test hole minus background−positive control well minus background)/(negative control well minus background-positive control well minus background))*100
7) The data were analyzed with Prism. The IC50 of the sample against VAP-1 cells was calculated.

Row | IC50 [nM] | Structure (SMILES)
78 | 0.7 | Cn1nc(CC(F)(F)F)nc1-c1ccc(OC/C(=C/F)CN)cc1 [WX104]
79 | 0.9 | NC/C(=C\F)COc1ccc(-c2nc(C3CC3)n(CC(F)(F)F)n2)cc1 [WX113]
80 | 1.3 | CC(C)n1nc(-c2ccc(OC/C(=C/F)CN)cc2)nc1C1CC1 [WX091]
81 | 0.4 | NC/C(=C\F)COc1ccc(-c2nc(CC(F)(F)F)n[nH]2)cc1 [WX101]
82 | 0.9 | Cn1nc(C2(F)CC2)nc1-c1ccc(OC/C(=C/F)CN)cc1 [WX117]
83 | 0.4 | NC/C(=C\F)COc1ccc(-c2nc(C3CC3)n[nH]2)cc1 [WX034]
84 | 0.9 | NC/C(=C\F)COc1ccc(-c2nc(C3CC3)n(CCO)n2)cc1 [WX112]
85 | 0.3 | CCCc1n[nH]c(-c2ccc(OC/C(=C/F)CN)cc2)n1 [WX097]
86 | 0.2 | Cn1nc(-c2ccc(OC/C(=C/F)CN)cc2)nc1C1CCOCC1 [WX095]
87 | 0.2 | NC/C(=C\F)COc1ccc(-c2nc(C3CC3)no2)cc1 [WX016]
88 | 0.3 | CCn1nnc(-c2ccc(OC/C(=C/F)CN)cc2)n1 [WX014]
89 | 0.7 | CC(C)n1nc(C(F)F)nc1-c1ccc(OC/C(=C/F)CN)cc1 [WX109]
90 | 0.7 | CCn1nc(C2(F)CC2)nc1-c1ccc(OC/C(=C/F)CN)cc1 [WX118]
91 | 0.8 | NC/C(=C\F)COc1ccc(-c2nc(C3(F)CC3)n[nH]2)cc1 [WX087]
92 | 1.6 | NC/C(=C\F)COc1ccc(-c2nc(C(F)F)n[nH]2)cc1 [WX088]
